ChEMBL document CHEMBL1201862, “PubChem BioAssay data set” (2004)
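1) Cells in 96-well plates. 2) Compound, 48 h, 5 concentrations. 3) Linear interpolation between surrounding doses. 4) Unreached endpoint = highest concentration. GI50: concentration for 50% inhibition of growth.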 The source made the active and inactive calls. Rule as the data show it: active = GI50 up to about 1.1 µM and inactive = higher.

Legend:
Assay in all cases: NCI anticancer screen, dose series, 48 h
EKVX = tested on: EKVX
HCC 2998 = tested on: HCC 2998
HCT-116 = tested on: HCT-116
HOP-62 = tested on: HOP-62
HOP-92 = tested on: HOP-92
Hs-578T = tested on: Hs-578T
KM12 = tested on: KM12
MCF7 = tested on: MCF7
NCI-H23 = tested on: NCI-H23
NCI/ADR-RES = tested on: NCI/ADR-RES
PC-3 = tested on: PC-3
RXF 393 = tested on: RXF 393
SF-539 = tested on: SF-539
SK-MEL-28 = tested on: SK-MEL-28
SK-MEL-5 = tested on: SK-MEL-5
SK-OV-3 = tested on: SK-OV-3
SN12C = tested on: SN12C
SNB-19 = tested on: SNB-19
TK-10 = tested on: TK-10
UACC-62 = tested on: UACC-62

Structure (SMILES) | GI50 (EKVX) | GI50 (HCC 2998) | GI50 (HCT-116) | GI50 (HOP-62) | GI50 (HOP-92) | GI50 (Hs-578T) | GI50 (KM12) | GI50 (MCF7) | GI50 (NCI-H23) | GI50 (NCI/ADR-RES) | GI50 (PC-3) | GI50 (RXF 393) | GI50 (SF-539) | GI50 (SK-MEL-28) | GI50 (SK-MEL-5) | GI50 (SK-OV-3) | GI50 (SN12C) | GI50 (SNB-19) | GI50 (TK-10) | GI50 (UACC-62)
SC1CCCN(Cc2ccccc2)C1 (stereo not given) | > 100 µM (inactive) | 16.2 µM (inactive) | 61.1 µM (inactive) | > 100 µM (inactive) | 60 µM (inactive) | 78.5 µM (inactive) | 34.1 µM (inactive) | 20.8 µM (inactive) | 25.6 µM (inactive) | > 100 µM (inactive) | 57.5 µM (inactive) | > 100 µM (inactive) | > 100 µM (inactive) | 41.9 µM (inactive) | 18.5 µM (inactive) | > 100 µM (inactive) | 95.3 µM (inactive) | > 100 µM (inactive) | 69.7 µM (inactive) | 44.8 µM (inactive)
CC(=O)c1c2c(cc3c1CC1(C3)Cc3ccc4c(c3C1=O)CCC4)CCC2 (stereo not given) | 7.13 µM (inactive) | 29.2 µM (inactive) | 10.8 µM (inactive) | > 100 µM (inactive) | 8.85 µM (inactive) | 13.5 µM (inactive) | 17.2 µM (inactive) | 16.7 µM (inactive) | 34.9 µM (inactive) | 2.07 µM (inactive) | 16 µM (inactive) | 9.64 µM (inactive) | > 100 µM (inactive) | 57.1 µM (inactive) | 13.4 µM (inactive) | > 100 µM (inactive) | 48.2 µM (inactive) | > 100 µM (inactive) | 11.1 µM (inactive) | 44.5 µM (inactive)
C[C@H]1C2Cc3cc(N)ccc3[C@@]1(C)CCN2CCc1ccccc1 | 40.6 µM (inactive) | 9.08 µM (inactive) | 41.8 µM (inactive) | 39.5 µM (inactive) | 21.4 µM (inactive) | 96.6 µM (inactive) | 37.5 µM (inactive) | 25.2 µM (inactive) | 32.8 µM (inactive) | 42.3 µM (inactive) | 22.6 µM (inactive) | 33.3 µM (inactive) | 45.2 µM (inactive) | > 100 µM (inactive) | 18.3 µM (inactive) | 24 µM (inactive) | > 100 µM (inactive) | > 100 µM (inactive) | 78 µM (inactive) | 45.5 µM (inactive)
CC1=C(C(=O)OCCO[N+](=O)[O-])C(c2cccc([N+](=O)[O-])c2)C(C(=O)OC(C)C)=C(C)N1 (stereo not given) | 16.8 µM (inactive) | 15.7 µM (inactive) | 10.5 µM (inactive) | 16.6 µM (inactive) | 11 µM (inactive) | 7.71 µM (inactive) | 11 µM (inactive) | 19.6 µM (inactive) | 17.6 µM (inactive) | 10.5 µM (inactive) | 4.25 µM (inactive) | 13.8 µM (inactive) | 14.2 µM (inactive) | 14.3 µM (inactive) | 12.8 µM (inactive) | 16.7 µM (inactive) | 17.4 µM (inactive) | 19.2 µM (inactive) | 14.9 µM (inactive) | 14.5 µM (inactive)
CC[C@]12C=CCN3CC[C@@]4(c5cc(Br)c(OC)cc5N(C)[C@H]4[C@@](O)(C(=O)NN)[C@@H]1O)[C@@H]32 | 59.4 µM (inactive) | > 100 µM (inactive) | > 100 µM (inactive) | > 100 µM (inactive) | > 100 µM (inactive) | 76.4 µM (inactive) | > 100 µM (inactive) | 30.3 µM (inactive) | 68.1 µM (inactive) | > 100 µM (inactive) | 28.1 µM (inactive) | 22.5 µM (inactive) | 30.5 µM (inactive) | 67.3 µM (inactive) | 49.5 µM (inactive) | 75.7 µM (inactive) | 76.9 µM (inactive) | 91.6 µM (inactive) | 59.4 µM (inactive) | 40.7 µM (inactive)
O=C(O)C(Cc1ccccc1)NCc1c(O)ccc2c(-c3ccccc3)cc(=O)oc12 (stereo not given) | > 100 µM (inactive) | > 100 µM (inactive) | > 100 µM (inactive) | > 100 µM (inactive) | > 100 µM (inactive) | > 100 µM (inactive) | > 100 µM (inactive) | > 100 µM (inactive) | > 100 µM (inactive) | > 100 µM (inactive) | > 100 µM (inactive) | > 100 µM (inactive) | > 100 µM (inactive) | > 100 µM (inactive) | > 100 µM (inactive) | > 100 µM (inactive) | > 100 µM (inactive) | > 100 µM (inactive) | > 100 µM (inactive) | > 100 µM (inactive)
CC(=O)O[C@H]1[C@H](OC(C)=O)[C@@H](CN=[N+]=[N-])OCO[C@@H]1CN=[N+]=[N-] | > 100 µM (inactive) | > 100 µM (inactive) | > 100 µM (inactive) | > 100 µM (inactive) | > 100 µM (inactive) | < 0.01 µM (active) | > 100 µM (inactive) | > 100 µM (inactive) | > 100 µM (inactive) | > 100 µM (inactive) | > 100 µM (inactive) | > 100 µM (inactive) | > 100 µM (inactive) | > 100 µM (inactive) | > 100 µM (inactive) | > 100 µM (inactive) | > 100 µM (inactive) | > 100 µM (inactive) | > 100 µM (inactive) | > 100 µM (inactive)
CC1CC[C@@]2(OC1)OC1C[C@H]3[C@@H]4CC=C5C[C@@H](OC6OC(CO)C(OC7OC(CO)C(O)C(O)C7O)C(O)C6OC6OC(C)C(O)C(O)C6O)CC[C@]5(C)[C@H]4CC[C@]3(C)C1[C@@H]2C (stereo not given in full) | 0.544 µM (active) | 0.484 µM (active) | 0.838 µM (active) | 0.593 µM (active) | 0.729 µM (active) | 0.714 µM (active) | 0.547 µM (active) | 0.587 µM (active) | 0.783 µM (active) | 2.07 µM (inactive) | 0.469 µM (active) | 0.431 µM (active) | 0.491 µM (active) | 0.53 µM (active) | 0.543 µM (active) | 3.3 µM (inactive) | 0.635 µM (active) | 1.2 µM (inactive) | 1.04 µM (active) | 0.469 µM (active)
CCOC(=O)C(C)(C(=O)OCC)/C(Cl)=C\Cl | > 100 µM (inactive) | 0.0434 µM (active) | > 100 µM (inactive) | > 100 µM (inactive) | > 100 µM (inactive) | > 100 µM (inactive) | > 100 µM (inactive) | 84.7 µM (inactive) | > 100 µM (inactive) | > 100 µM (inactive) | > 100 µM (inactive) | > 100 µM (inactive) | > 100 µM (inactive) | > 100 µM (inactive) | > 100 µM (inactive) | > 100 µM (inactive) | > 100 µM (inactive) | > 100 µM (inactive) | > 100 µM (inactive) | > 100 µM (inactive)
CC1(C)COCN1COC1CCCCC1 | > 100 µM (inactive) | > 100 µM (inactive) | > 100 µM (inactive) | > 100 µM (inactive) | > 100 µM (inactive) | > 100 µM (inactive) | > 100 µM (inactive) | > 100 µM (inactive) | > 100 µM (inactive) | > 100 µM (inactive) | > 100 µM (inactive) | > 100 µM (inactive) | > 100 µM (inactive) | > 100 µM (inactive) | > 100 µM (inactive) | > 100 µM (inactive) | > 100 µM (inactive) | > 100 µM (inactive) | > 100 µM (inactive) | > 100 µM (inactive)
Cc1ccnc2c1C(=O)C1=C(OC(C)(C)CC1O)C2=O (stereo not given) | 5.21 µM (inactive) | 3.88 µM (inactive) | 2.82 µM (inactive) | 3.37 µM (inactive) | 10.1 µM (inactive) | 2.81 µM (inactive) | 3.27 µM (inactive) | 2.56 µM (inactive) | 1.76 µM (inactive) | 2.78 µM (inactive) | 2.91 µM (inactive) | 10.7 µM (inactive) | 3.41 µM (inactive) | 2.05 µM (inactive) | 1.17 µM (inactive) | 13.7 µM (inactive) | 3.21 µM (inactive) | 7.38 µM (inactive) | 12 µM (inactive) | 1.71 µM (inactive)
Cc1ccc(S(=O)(=O)Nc2nc3ccccc3c(=O)n2C2CCCCC2)cc1 | > 100 µM (inactive) | > 100 µM (inactive) | > 100 µM (inactive) | > 100 µM (inactive) | 67.5 µM (inactive) | 62.5 µM (inactive) | > 100 µM (inactive) | > 100 µM (inactive) | > 100 µM (inactive) | > 100 µM (inactive) | > 100 µM (inactive) | 68.2 µM (inactive) | > 100 µM (inactive) | > 100 µM (inactive) | > 100 µM (inactive) | > 100 µM (inactive) | > 100 µM (inactive) | > 100 µM (inactive) | > 100 µM (inactive) | 77.4 µM (inactive)
C=CC(C)(C)NC(C(=O)N1CCC[C@H]1c1nc(-c2nc(C(=O)OCC=C(C)C)c(C)o2)c(C)o1)C(C)C (stereo not given in full) | > 52 µM (inactive) | > 100 µM (inactive) | > 60.7 µM (inactive) | > 100 µM (inactive) | 23.3 µM (inactive) | 81.5 µM (inactive) | > 54.2 µM (inactive) | > 53.8 µM (inactive) | > 100 µM (inactive) | > 55 µM (inactive) | > 64 µM (inactive) | > 55.2 µM (inactive) | > 48.2 µM (inactive) | > 66.1 µM (inactive) | 47.1 µM (inactive) | > 83 µM (inactive) | > 47.8 µM (inactive) | > 48.6 µM (inactive) | > 57.8 µM (inactive) | 37.8 µM (inactive)
